From ChEMBL document CHEMBL1909046, “DrugMatrix in vitro pharmacology data”

Experiments:
[1] = target: Platelet-activating factor receptor (Homo sapiens, UniProt P25105); type: tissue-based; also: in other assays of this panel Not Active means under 50% inhibition at 10 µM
[2] = DRUGMATRIX: Calcium Channel Type L, Benzothiazepine radioligand binding (ligand: [3H] Diltiazem); type: cell membranes, Rattus norvegicus, Wistar, Brain, Membrane; details: Not Active = under 50% inhibition at 10 µM
[3] = target: T1, C-X-C chemokine receptor type 2 (Homo sapiens, UniProt P25025); type: cell membranes, Membrane; details: cho-k1; also: in other assays of this panel Not Active means under 50% inhibition at 10 µM
T1 sequence (P25025 whole entry): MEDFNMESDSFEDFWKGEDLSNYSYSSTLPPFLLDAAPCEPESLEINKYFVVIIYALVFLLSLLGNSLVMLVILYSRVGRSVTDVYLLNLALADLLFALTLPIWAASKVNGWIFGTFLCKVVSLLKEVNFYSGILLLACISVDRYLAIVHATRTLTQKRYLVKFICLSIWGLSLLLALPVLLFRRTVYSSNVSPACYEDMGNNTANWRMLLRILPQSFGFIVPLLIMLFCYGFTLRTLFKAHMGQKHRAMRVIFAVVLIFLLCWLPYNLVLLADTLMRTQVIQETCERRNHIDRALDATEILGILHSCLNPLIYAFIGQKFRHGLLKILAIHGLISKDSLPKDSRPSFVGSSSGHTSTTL

[4] = target: Aldo-keto reductase family 1 member B1 (Rattus norvegicus, UniProt P07943); assay: biochemical; type: tissue-based, Lens of camera-type eye;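 also: inhibition of aldose reductase enzyme activity, measured with DL-glyceraldehyde as the substrate; in other assays of this panel Not Active means under 50% inhibition at 10 µM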
[5] = target: T2, Amine oxidase [flavin-containing] A (Homo sapiens, UniProt P21397); assay: DRUGMATRIX: Monoamine Oxidase MAO-A enzyme inhibition (substrate: Kynuramine); parameters: species or system BTI-TN-5B1-4; details: bti-tn-5b1-4; Not Active = under 50% inhibition at 10 µM
T2 sequence (P21397 whole entry): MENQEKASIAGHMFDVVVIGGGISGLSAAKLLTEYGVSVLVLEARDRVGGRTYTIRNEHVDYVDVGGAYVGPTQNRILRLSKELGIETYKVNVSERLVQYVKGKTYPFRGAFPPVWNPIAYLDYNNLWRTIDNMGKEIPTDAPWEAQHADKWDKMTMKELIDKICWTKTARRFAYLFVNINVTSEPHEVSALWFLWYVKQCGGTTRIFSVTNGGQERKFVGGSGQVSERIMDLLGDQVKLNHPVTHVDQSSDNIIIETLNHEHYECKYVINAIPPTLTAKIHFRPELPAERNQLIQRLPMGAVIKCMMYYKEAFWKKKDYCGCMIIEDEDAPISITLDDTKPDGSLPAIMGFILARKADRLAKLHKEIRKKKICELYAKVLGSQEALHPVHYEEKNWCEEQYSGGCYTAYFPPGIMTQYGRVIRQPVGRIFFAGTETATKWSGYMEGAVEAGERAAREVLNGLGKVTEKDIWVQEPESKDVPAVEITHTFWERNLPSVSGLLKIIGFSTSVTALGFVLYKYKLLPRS

Caspase-1 = target: T3, Caspase-1 (Homo sapiens, UniProt P29466); parameters: species or system Escherichia coli;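 also: Caspase-1 enzyme inhibition assay with a peptide substrate; in other assays of this panel Not Active means under 50% inhibition at 10 µM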
T3 sequence (P29466 whole entry): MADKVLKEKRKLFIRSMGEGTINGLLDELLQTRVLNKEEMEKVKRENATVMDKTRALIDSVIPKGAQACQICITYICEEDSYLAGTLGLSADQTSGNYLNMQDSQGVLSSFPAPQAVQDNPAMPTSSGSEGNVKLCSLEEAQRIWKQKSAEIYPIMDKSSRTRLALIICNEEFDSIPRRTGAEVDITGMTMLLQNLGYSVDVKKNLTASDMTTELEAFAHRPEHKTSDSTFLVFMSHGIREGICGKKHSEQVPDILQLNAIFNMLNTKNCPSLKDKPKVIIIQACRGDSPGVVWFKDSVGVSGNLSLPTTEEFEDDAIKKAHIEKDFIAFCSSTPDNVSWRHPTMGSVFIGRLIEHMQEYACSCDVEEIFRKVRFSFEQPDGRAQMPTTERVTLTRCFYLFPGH

[6] = target: cGMP-specific 3',5'-cyclic phosphodiesterase (Homo sapiens, UniProt O76074); assay: DRUGMATRIX: Phosphodiesterase PDE5 enzyme inhibition (substrate: [3H]cGMP + cGMP); type: tissue-based; details: platelet; Not Active = under 50% inhibition at 10 µM
[7] = target: Protein phosphatase 3 catalytic subunit alpha (Homo sapiens, UniProt Q08209); parameters: species or system Escherichia coli

Chain of Platelet-activating factor receptor (P25105 whole entry): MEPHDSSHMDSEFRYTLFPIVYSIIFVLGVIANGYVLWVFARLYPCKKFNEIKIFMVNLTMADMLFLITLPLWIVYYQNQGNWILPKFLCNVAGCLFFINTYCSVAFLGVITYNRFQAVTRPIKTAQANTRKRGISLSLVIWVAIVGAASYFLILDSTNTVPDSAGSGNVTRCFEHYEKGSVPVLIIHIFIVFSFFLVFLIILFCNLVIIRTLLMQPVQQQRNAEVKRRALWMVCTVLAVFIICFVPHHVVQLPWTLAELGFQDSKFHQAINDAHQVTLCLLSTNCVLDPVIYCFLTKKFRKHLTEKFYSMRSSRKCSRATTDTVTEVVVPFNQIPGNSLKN

| SMILES | IC50 [1] | IC50 [2] | Ki [2] | IC50 [3] | IC50 [4] | IC50 [5] | IC50 (Caspase-1) | IC50 [6] | IC50 [7] | Ki [7] | IC50 ([2]; read-out: IC50) [nM] | Ki ([2]; read-out: Ki) [nM] | Ki [1] | Ki [3] | Ki [4] | Ki [5] | Ki (Caspase-1) | Ki [6] |
| --- | --- | --- | --- | --- | --- | --- | --- | --- | --- | --- | --- | --- | --- | --- | --- | --- | --- | --- |
| CC(C)CN(C[C@@H](O)[C@H](Cc1ccccc1)NC(=O)O[C@H]1CCOC1)S(=O)(=O)c1ccc(N)cc1 | Not Active | Not Active | Not Active | Not Active | Not Active | Not Active | Not Active | Not Active | Not Active |  |  |  |  |  |  |  |  |  |
| c1ccc(Nc2ccc(Nc3ccccc3)cc2)cc1 | Not Active | Not Active | Not Active | Not Active | Not Active | Not Active | Not Active | Not Active | Not Active |  |  |  |  |  |  |  |  |  |
| COc1cc2c3cc1Oc1cc(ccc1O)C[C@@H]1c4c(cc(OC)c(O)c4Oc4ccc(cc4)C[C@@H]3N(C)CC2)CC[N+]1(C)C.[Cl-] | Not Active | Not Active | Not Active | Not Active | Not Active | Not Active | Not Active | Not Active | Not Active |  |  |  |  |  |  |  |  |  |
| NC(=O)N1c2ccccc2CCc2ccccc21 | Not Active | Not Active | Not Active | Not Active | Not Active | Not Active | Not Active | Not Active | Not Active |  |  |  |  |  |  |  |  |  |
| O=C1CC[C@@H](N2C(=O)c3ccccc3C2=O)C(=O)N1 | Not Active | Not Active | Not Active | Not Active | Not Active | Not Active | Not Active | Not Active | Not Active |  |  |  |  |  |  |  |  |  |
| Cc1onc(O)c1CC(N)C(=O)O (racemic) [(R,S)-AMPA] | Not Active | Not Active | Not Active | Not Active | Not Active | Not Active | Not Active | Not Active | Not Active |  |  |  |  |  |  |  |  |  |
| Cc1ccc2cc3c(ccc4ccccc43)c3c2c1CC3 [3-METHYLCHOLANTHRENE] | Not Active | Not Active | Not Active | Not Active | Not Active | Not Active | Not Active | Not Active | Not Active |  |  |  |  |  |  |  |  |  |
| CC[C@@]1(O)C[C@H](O[C@H]2C[C@H](N(C)C)[C@H](O[C@H]3C[C@H](O)[C@H](O[C@H]4CCC(=O)[C@H](C)O4)[C@H](C)O3)[C@H](C)O2)c2c(cc3c(c2O)C(=O)c2c(O)cccc2C3=O)[C@H]1C(=O)OC [ACLARUBICIN] | Not Active | Not Active | Not Active | Not Active | Not Active | Not Active | Not Active | Not Active | Not Active |  |  |  |  |  |  |  |  |  |
| Nc1nc2c(ncn2COCCO)c(=O)[nH]1 [ACYCLOVIR] | Not Active | Not Active | Not Active | Not Active | Not Active | Not Active | Not Active | Not Active | Not Active |  |  |  |  |  |  |  |  |  |
| Cc1c(C)c2c(c(C)c1O)CC[C@@](C)(CCC[C@H](C)CCC[C@H](C)CCCC(C)C)O2 [ALPHA-TOCOPHEROL] | Not Active | Not Active | Not Active | Not Active | Not Active | Not Active | Not Active | Not Active | Not Active |  |  |  |  |  |  |  |  |  |
| CN(C)c1nc(N(C)C)nc(N(C)C)n1 [ALTRETAMINE] | Not Active | Not Active | Not Active | Not Active | Not Active | Not Active | Not Active | Not Active | Not Active |  |  |  |  |  |  |  |  |  |
| Nc1c(Br)cc(Br)cc1CN[C@H]1CC[C@H](O)CC1 [AMBROXOL] | Not Active | Not Active | Not Active | Not Active | Not Active | Not Active | Not Active | Not Active | Not Active |  |  |  |  |  |  |  |  |  |
| NCCCCCC(=O)O [AMINOCAPROIC ACID] | Not Active | Not Active | Not Active | Not Active | Not Active | Not Active | Not Active | Not Active | Not Active |  |  |  |  |  |  |  |  |  |
| CCC1(c2ccc(N)cc2)CCC(=O)NC1=O (centres undefined) [AMINOGLUTETHIMIDE] | Not Active | Not Active | Not Active | Not Active | Not Active | Not Active | Not Active | Not Active |  | Not Active |  |  |  |  |  |  |  |  |
| Cc1ccc(/N=C/N(C)/C=N/c2ccc(C)cc2C)c(C)c1 [AMITRAZ] | Not Active | Not Active | Not Active | Not Active | Not Active | Not Active | Not Active | Not Active | Not Active |  |  |  |  |  |  |  |  |  |
| CCOC(=O)C1=C(COCCN)NC(C)=C(C(=O)OC)C1c1ccccc1Cl (centres undefined) [AMLODIPINE] | Not Active |  |  | Not Active | Not Active | Not Active | Not Active | Not Active | Not Active |  | 101 | 90 |  |  |  |  |  |  |
| COc1ccc(C[C@H]2NC[C@H](O)[C@H]2OC(C)=O)cc1 [ANISOMYCIN] | Not Active | Not Active | Not Active | Not Active | Not Active | Not Active | Not Active | Not Active | Not Active | Not Active |  |  | Not Active | Not Active | Not Active | Not Active | Not Active | Not Active |
| Nc1ncn([C@@H]2O[C@H](CO)[C@@H](O)[C@H]2O)c(=O)n1 [AZACITIDINE] | Not Active | Not Active | Not Active | Not Active | Not Active | Not Active | Not Active | Not Active | Not Active |  |  |  |  |  |  |  |  |  |
| CN(C)C(=O)Oc1cc(OC(=O)N(C)C)cc(C(O)CNC(C)(C)C)c1 (centres undefined) [BAMBUTEROL] | Not Active | Not Active | Not Active | Not Active | Not Active | Not Active | Not Active | Not Active | Not Active |  |  |  |  |  |  |  |  |  |
| c1ccc2c(c1)c1cccc3ccc4cccc2c4c31 [BENZO[E]PYRENE] | Not Active | Not Active | Not Active | Not Active | Not Active | Not Active | Not Active | Not Active | Not Active |  |  |  |  |  |  |  |  |  |
| CNCCc1ccccn1 [BETAHISTINE] | Not Active | Not Active | Not Active | Not Active | Not Active | Not Active | Not Active | Not Active | Not Active |  |  |  |  |  |  |  |  |  |
| CC(C)C(Br)C(=O)NC(N)=O (centres undefined) [BROMISOVALUM] | Not Active | Not Active | Not Active | Not Active | Not Active | Not Active | Not Active | Not Active | Not Active |  |  |  |  |  |  |  |  |  |
| CCCC1O[C@@H]2C[C@H]3[C@@H]4CCC5=CC(=O)C=C[C@]5(C)[C@H]4[C@@H](O)C[C@]3(C)[C@]2(C(=O)CO)O1 (some centres undefined) [BUDESONIDE] | Not Active | Not Active | Not Active | Not Active | Not Active | Not Active | Not Active | Not Active | Not Active |  |  |  |  |  |  |  |  |  |
